The source of these data is patent US20210196714A1, “COMPOSITIONS AND METHODS FOR TREATING DISORDERS CHARACTERIZED WITH ABERRANT RAS/MAPK SIGNALING” (Duke University, priority 2018, published 2021).

Entries after “also recorded” stand apart in the source; their conditions may differ.

Assay type in all cases: in vivo, zebrafish
The subject of assay [1] is kmt2d+/−×kmt2d+/− progeny. The assay can be described thus: Jaw defect in stable kmt2d mutant intercross progeny. To be noted: 100 mM dmDf, 5 dpf. From the text: FIG. 12: Treatment with dmDf rescues the defects of stable kmt2d mutant. kmt2d+/− adults were in-crossed and the embryos were then collected at 1 dpf, 2 dpf and 5 dpf to assess dmDf efficacy. […] Error bars show SEM (standard error of the mean).
Although the small molecule testing data in CRISPR F0 mosaic models are consistent with morphant phenotypes (and rescue), experiments recognized the necessity of testing the potential efficacy of dmDf in a stable genetic model that is a better genotypic proxy to human patients. […] In addition to examining proliferation of cells in the brain, experiments assessed whether neural differentiation is affected (see, Van Laarhoven, P. M. et al. Hum Mol Genet 24, 4443-53 (2015)).
(§1) For convergence and extension (CE) phenotyping, embryos were scored as described (see, Leitch, C. C. et al. Nat Genet 40, 443-8 (2008)) at the 8-10 somite stage, and images were captured using an AZ100 microscope and NIS Elements software (Nikon). […] The distance between Meckel's (MK) and ceratohyal (CH) cartilages was measured on ventral bright field images with Image J (NIH). […] Fluorescence signal on embryo heads was imaged with the Nikon AZ100 microscope and DS-Qi1MC digital camera using […] Z-stacks to generate extended depth of focus images. Cell numbers were quantified using the ImageJ ICTN plugin (NIH). […]

The subject of the next assay is kmt2d morphants. The assay can be described thus: Brain cell proliferation (pHH3 immunostaining) in kmt2d morphants. Conditions: 100 nM, 2 dpf, listed as dmDf.
Text: (§2) Intellectual disability represents a major phenotype in KS, with some studies reporting almost 90% of patients to be affected (see, Wessels, M. W., et al. Clin Dysmorphol 11, 95-102 (2002)). […] Previous studies have shown that defects in proliferation in the developing zebrafish brain can be a proxy for neurodevelopmental and neurocognitive traits, especially in the context of microcephaly (see, Borck, G. et al. Genome Res 25, 609 (2015); Brooks, S. S. et al. Genetics 198, 723-33 (2014); O'Rawe, J. A. et al. Am J Hum Genet 97, 922-32 (2015); Wortmann, S. B. et al. Am J Hum Genet 96, 245-57 (2015)), a phenotype reported commonly in KS (see, Matsumoto, N. & Niikawa, N. Am J Med Genet C Semin Med Genet 117C, 57-65 (2003)).
as §1

The subject of another assay is rap1-CRISPR embryos. The assay can be described thus: Brain cell proliferation (pHH3 immunostaining) in rap1-mosaic mutants. To be noted: 100 nM, 2 dpf, listed as dmDf.
Text: as §2, §1

Consider `CC(C)c1nc(-c2cccc(NS(=O)(=O)c3c(F)cccc3F)c2F)c(-c2ccnc(N)n2)s1` [Compound 8, desmethyl-Dabrafenib], for which the “mandibular length / jaw defect” value in assay [1] was “rescues significantly; also recorded: rescue of the mandibular length”. Besides, the “total number of proliferating (pHH3+) cells in brain” value with kmt2d morphants is reported as “significantly increases pHH3+ proliferating cells; also recorded: restored the total number of proliferating cells to wild type levels”; in the assay with rap1-CRISPR embryos, “can be rescued; also recorded: restored the total number of proliferating cells to wild type levels”.
